Assays:
[1] = target: T1, full-length Akt1 (active) (Homo sapiens, UniProt P31749); assay: Biochemical Akt1 assay (full-length Akt1 active, flashplate, Crosstide); conditions: 100 nM ATP, Crosstide substrate; read-out: Akt1 inhibition (full-length Akt1, active): IC50
T1 construct: recombinant full-length human Akt1, containing N-terminal His6 tag; His6 (N); GST (N); purchased Upstate, UK #14-276; host or cells: baculovirus infected Sf21 insect cells
Text: For the biochemical Akt1 assay recombinant full-length human Akt1, containing N-terminal His6 tag is cloned and expressed in baculovirus infected Sf21 insect cells. Akt1 is activated with GST-MAPKAP-K2 and PDK1, and repurified on Ni2+/NTA-agrose and glutathioneagarose (Upstate, UK; #14-276).
In order to study the inhibition of Akt1 (full-length version) according to the invention, a flashplate-based assay has been developed.
The full-length Akt1 assay is a biochemical assay using Akt1 N-terminally fused to GST and co-expressed with PDKI in insect cells. The Akt1 assay is run in 96 well plates by incubating 500 ng/well GST-Akt1, 1 μM Crosstide (N-terminally biotinylated synthetic peptide (KGSGSGRPRTSSFAEG) Upstate, #12-385) as substrate, 10 μl of test compound (test compounds were dissolved as 10 mM solutions in dimethylsulfoxide (DMSO) and subsequently diluted) and 100 nM ATP (including ^33P-ATP) in 100 μl of reaction buffer (50 mM HEPES, pH7,5; 3 mM MgCl2; 3 mM MnCl2; 3 μM Na-Orthovanadat; 1 mM DTT; 1 μg/ml PEG8000) for 60 minutes at 30° C. in 96 well microtiter plates. The reactions are terminated by adding 100 μl stopping buffer (5M NaCl, 35 mM EDTA pH 8.0) for 5 minutes. 190μl of the reaction mixture are transferred into streptavidin-coated Flashplates (Perkin Elmer, #SMP-103) and incubated for further 30 minutes at room temperature. The plates are washed 3 times by using washing buffer (0.9% NaCl). Relying on the incorporation of ^33P into the peptide substrate crosstide, the detection is based on the specific binding of the biotinylated peptide to the streptavidin-coated surface of scintillator-coated flash plates (NEN, USA; #SMP-103). This phosphorylation is measured by counting the plate for 60 sec. using a plate reader (Wallac Microbeta; Perkin Elmer, USA).

[2] = target: T2, PKA (Homo sapiens, UniProt P17612); assay: Biochemical PKA assay (flashplate); conditions: 100 nM ATP; read-out: PKA inhibition: −log IC50 (converted)
T2 construct: His; purchased PanVera, USA #R3791; host or cells: E. coli
In short: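 His-tagged human recombinant PKA catalytic subunit (E. coli), 1 ng/well, with 0.5 μM PKA peptide and 100 nM ATP including ^33P-ATP. Buffer […] pH7,5, 3 mM MgCl2, 3 mM MnCl2, Na-orthovanadate, 1 mM DTT; 80 min at 22° C. Stopped with H3PO4, scintillation flashplate counting, IC50 derived.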

T1 sequence (P31749 whole entry): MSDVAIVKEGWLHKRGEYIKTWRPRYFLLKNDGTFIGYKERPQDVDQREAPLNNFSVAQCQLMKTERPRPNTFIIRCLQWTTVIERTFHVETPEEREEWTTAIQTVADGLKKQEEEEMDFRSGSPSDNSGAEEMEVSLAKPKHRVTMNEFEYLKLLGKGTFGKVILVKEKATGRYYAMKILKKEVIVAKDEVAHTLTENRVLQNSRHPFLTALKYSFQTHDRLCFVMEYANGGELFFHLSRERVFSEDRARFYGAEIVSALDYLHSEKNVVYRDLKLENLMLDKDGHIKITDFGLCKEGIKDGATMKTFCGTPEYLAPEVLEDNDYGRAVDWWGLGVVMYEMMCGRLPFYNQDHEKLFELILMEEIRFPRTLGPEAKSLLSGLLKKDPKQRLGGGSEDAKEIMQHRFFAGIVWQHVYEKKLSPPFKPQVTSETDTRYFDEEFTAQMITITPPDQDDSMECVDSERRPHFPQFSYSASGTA

| SMILES | IC50 [1] | IC50 [2] |
| --- | --- | --- |
| NCCCC(=O)Nc1ccc(Nc2nc(-c3cccc4c3oc3ccccc34)cc3ccnn23)cc1 [Example 24, 4-Amino-N-[4-(5-dibenzofuran-4-yl-pyrazolo[1,5-c]pyrimidin-7-ylamino)-phenyl]-butyramide] | ≤ 4.03 µM | – |
| COc1cccc(-c2ccc(-c3cc4ccnn4c(Nc4ccc(NC(=O)c5ccc(CN)cc5)cc4)n3)cc2)c1 [Example 59, 4-Aminomethyl-N-{4-[5-(3′-methoxy-biphenyl-4-yl)-pyrazolo[1,5-c]pyrimidin-7-ylamino]-phenyl}-benzamide] | ≤ 4.03 µM | 6.31 to 100 µM |
| O=C(Nc1cccc(Nc2nc(-c3cccc4c3oc3ccccc34)cc3ccnn23)c1)c1ccc2c(c1)CCNC2 [Example 63, 1,2,3,4-Tetrahydro-isoquinoline-6-carboxylic acid [3-(5-dibenzofuran-4-yl-pyrazolo[1,5-c]pyrimidin-7-ylamino)-phenyl]-amide] | ≤ 4.03 µM | 6.31 to 100 µM |
| COc1cccc(-c2ccc(-c3cc4c(Br)cnn4c(Nc4ccc(NC(=O)c5ccc(CN)cc5)cc4)n3)cc2)c1 [Example 87, 4-Aminomethyl-N-{4-[3-bromo-5-(3′-methoxy-biphenyl-4-yl)-pyrazolo[1,5-c]pyrimidin-7-ylamino]-phenyl}-benzamide] | ≤ 4.03 µM | – |

Reference: patent US7745446B2, “Pyrazolo[1,5-c]pyrimidines” (Bayer Schering Pharma Aktiengesellschaft, priority 2004, dated 2010)
